Measured values reported in US9926292B2, “Pyridinyl derivatives, pharmaceutical compositions and uses thereof” (Boehringer Ingelheim International GmbH, priority 2016, dated 2018).
Read-outs that look alike come from different tables or passages of the source.

What was measured:
[1] = target: T1, AOC3 (Homo sapiens, UniProt Q16853); experiment: AOC3 biochemical assay (MAO-Glo)
T1 construct: expressed in transfected cells; host or cells: CHO cells
T1 sequence (Q16853 1-763): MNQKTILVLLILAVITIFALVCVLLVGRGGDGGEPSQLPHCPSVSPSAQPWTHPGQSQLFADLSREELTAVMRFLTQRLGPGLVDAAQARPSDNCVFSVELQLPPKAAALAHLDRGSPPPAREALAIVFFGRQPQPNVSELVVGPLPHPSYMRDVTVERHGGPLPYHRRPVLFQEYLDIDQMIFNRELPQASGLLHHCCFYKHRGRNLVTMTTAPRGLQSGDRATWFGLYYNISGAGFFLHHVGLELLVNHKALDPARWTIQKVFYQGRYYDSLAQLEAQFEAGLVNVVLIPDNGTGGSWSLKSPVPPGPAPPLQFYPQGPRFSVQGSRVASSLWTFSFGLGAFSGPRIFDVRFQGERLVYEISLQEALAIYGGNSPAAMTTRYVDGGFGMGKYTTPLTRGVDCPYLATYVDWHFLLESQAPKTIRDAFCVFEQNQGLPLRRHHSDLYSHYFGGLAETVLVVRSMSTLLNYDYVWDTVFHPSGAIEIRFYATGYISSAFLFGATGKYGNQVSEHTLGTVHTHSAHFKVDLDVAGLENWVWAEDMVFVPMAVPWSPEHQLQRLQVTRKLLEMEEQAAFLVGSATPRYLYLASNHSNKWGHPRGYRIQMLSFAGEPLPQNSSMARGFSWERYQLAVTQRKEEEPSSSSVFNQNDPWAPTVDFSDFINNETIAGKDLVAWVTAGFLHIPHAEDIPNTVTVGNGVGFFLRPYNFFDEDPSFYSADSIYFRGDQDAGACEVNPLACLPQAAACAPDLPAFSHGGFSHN
Experimental: As substrate a derivate of the beetle luciferin ((4S)-4,5-dihydro-2-(6-hydroxybenzothiazolyl)-4-thiazole-carboxylic acid) is used, which is oxidized at a primary amine moiety. After a spontaneous elimination and a catalyzed esterase reaction, the turnover of the luciferine by the luciferase is recorded as a signal of AOC3 activity.
Recombinant CHO cells, overexpressing the human (1500 cells/well), mouse (1000 cells/well) or rat (500 cells/well) AOC3 enzyme are diluted in reaction buffer and added in a volume of 15 μL to the wells. After incubation for 20 minutes at 37° C., 2 μL of MAO substrate (dissolved in DMSO at 16 mM, adjusted to assay concentration in reaction buffer to a final assay concentration of 20 μM) is added and further incubated for 60 minutes at 37° C. The turnover of the substrate is determined by the addition of 20 μL of the detection-mix which was generated by the addition of reconstitution buffer with esterase (PROMEGA, #V1402) to the luciferine detection reagent (PROMEGA, #V1402).

[2] = target: T2, AOC1 (Homo sapiens, UniProt P19801); experiment: AOC1 biochemical assay (Amplex Red)
T2 construct: purchased R&D Systems 8297-AO-010
T2 sequence (P19801 20-751): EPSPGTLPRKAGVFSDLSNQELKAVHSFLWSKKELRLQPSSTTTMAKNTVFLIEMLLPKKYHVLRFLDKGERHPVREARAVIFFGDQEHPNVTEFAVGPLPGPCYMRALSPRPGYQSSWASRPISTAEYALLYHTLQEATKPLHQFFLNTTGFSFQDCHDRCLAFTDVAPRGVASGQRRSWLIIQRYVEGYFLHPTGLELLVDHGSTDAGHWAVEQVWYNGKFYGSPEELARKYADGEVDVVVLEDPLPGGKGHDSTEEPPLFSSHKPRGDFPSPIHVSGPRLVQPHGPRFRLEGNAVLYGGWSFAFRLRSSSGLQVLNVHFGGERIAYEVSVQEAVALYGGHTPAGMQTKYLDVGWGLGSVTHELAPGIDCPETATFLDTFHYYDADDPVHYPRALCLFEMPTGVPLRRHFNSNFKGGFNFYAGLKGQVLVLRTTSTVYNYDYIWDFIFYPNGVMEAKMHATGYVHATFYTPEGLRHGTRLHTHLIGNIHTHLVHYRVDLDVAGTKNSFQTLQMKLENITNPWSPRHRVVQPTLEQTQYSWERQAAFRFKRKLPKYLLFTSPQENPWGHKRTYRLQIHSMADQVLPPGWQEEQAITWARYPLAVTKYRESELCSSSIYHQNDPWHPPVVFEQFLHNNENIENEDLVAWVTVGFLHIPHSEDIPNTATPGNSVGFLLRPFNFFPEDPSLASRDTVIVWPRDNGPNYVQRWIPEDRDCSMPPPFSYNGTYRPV
Description: The Amplex® Red Assay (available from Thermo Fisher Scientific) provides a sensitive method for the detection of H2O2 generated during enzymatic reactions like the amine oxidation catalyzed by AOC1.

[3] = Table 2, comparison with compounds of EP 2 695 881, read-out: IC50 AOC3
[4] = Table 2, comparison with compounds of EP 2 695 881, read-out: IC50 AOC1

SMILES	IC50 ([1]; Table 1, read-out: AOC3 IC50)	IC50 ([2]; Table 1, read-out: AOC1 IC50)	IC50 [1, 3]	IC50 [2, 4]	melting point
COCCOc1ncc(-c2cccc(COC(=O)NC(=N)N)c2F)cn1 [Ex. 197, p. 243, reference compound]	–	–	6 nM	97 nM	–
N=C(N)NC(=O)OCc1cccc(-c2cnc(N3CCOCC3)nc2)n1 [Example 14]	3 nM	1340 nM	–	–	–
COCCNc1ncc(-c2cccc(COC(=O)NC(=N)N)n2)cn1 [Example 09]	7 nM	1410 nM	–	–	–
CC(F)(F)CNc1ncc(-c2cccc(COC(=O)NC(=N)N)n2)cn1 [Example 19]	9 nM	–	–	–	–
N=C(N)NC(=O)OCc1cccc(-c2cnc(OCC3CCN(C(=O)C4CC4)CC3)nc2)n1 [Example 38]	3 nM	322 nM	–	–	–
N=C(N)NC(=O)OCc1cccc(-c2cnc(OCCCC(F)(F)F)nc2)n1 [Example 36, [6-[2-(4,4,4-trifluorobutoxy)pyrimidin-5-yl]-2-pyridyl]methyl N-carbamimidoylcarbamate]	5 nM	1150 nM	–	–	194 to 197 °C
CC(=O)N1CCC(COc2ncc(-c3cccc(COC(=O)NC(=N)N)n3)cn2)CC1 [Example 37]	3 nM	227 nM	–	–	–
CC(F)(F)COc1ccc(-c2cccc(COC(=O)NC(=N)N)n2)cn1 [Example 18]	3 nM	1400 nM	–	–	–
CCOc1ncc(-c2cccc(COC(=O)NC(=N)N)c2F)cn1 [Ex. 136, p. 235, reference compound]	–	–	6 nM	60 nM	–
N=C(N)NC(=O)OCc1cccc(-c2cnc(O[C@H]3CCOC3)nc2)n1 [Example 15]	8 nM	5190 nM	–	–	–
CC(Oc1ncc(-c2cccc(COC(=O)NC(=N)N)n2)cn1)c1ccon1 (centres unmarked) [Example 28]	15 nM	3290 nM	–	–	–
COC1CN(c2ncc(-c3cccc(COC(=O)NC(=N)N)c3F)cn2)C1 [Ex. 63, p. 227, reference compound]	–	–	1 nM	100 nM	–
CN(c1ncc(-c2cccc(COC(=O)NC(=N)N)n2)cn1)C1CCOC1 (centres unmarked) [Example 25]	3 nM	483 nM	–	–	–
N=C(N)NC(=O)OCc1cccc(-c2cnc(OCC3CCN(C(=O)C4CC4)CC3)nc2)c1F [Ex. 74, p. 229, reference compound]	–	–	1 nM	8 nM	–
COCCN(C)c1ncc(-c2cccc(COC(=O)NC(=N)N)n2)cn1 [Example 16]	9 nM	718 nM	–	–	–
CN(c1ncc(-c2cccc(COC(=O)NC(=N)N)n2)cn1)C1CCOCC1 [Example 32]	2 nM	710 nM	–	–	–
CN(C)c1ncc(-c2cccc(COC(=O)NC(=N)N)n2)cn1 [Example 04]	5 nM	1720 nM	–	–	–
N=C(N)NC(=O)OCc1cccc(-c2cnc(C3CCOCC3)nc2)n1 [Example 12]	5 nM	7530 nM	–	–	–
N=C(N)NC(=O)OCc1cccc(-c2cnc(C3CC3)nc2)n1 [Example 03, [6-(2-cyclopropylpyrimidin-5-yl)-2-pyridyl]methyl N-carbamimidoylcarbamate]	8 nM	8030 nM	–	–	–
COC1CN(c2ncc(-c3cccc(COC(=O)NC(=N)N)n3)cn2)C1 [Example 13]	2 nM	1480 nM	–	–	–
N=C(N)NC(=O)OCc1cccc(-c2cnc(OCC3CCOCC3)nc2)n1 [Example 33]	3 nM	899 nM	–	–	–
CC(=O)N1CCC(COc2ncc(-c3cccc(COC(=O)NC(=N)N)c3F)cn2)CC1 [Ex. 11, p. 221, reference compound]	–	–	1 nM	6 nM	–
N#CC1(COc2ncc(-c3cccc(COC(=O)NC(=N)N)n3)cn2)CCC1 [Example 27]	4 nM	3770 nM	–	–	–
N=C(N)NC(=O)OCc1cccc(-c2cnc(N3CCOCC3)nc2)c1F [Ex. 81, p. 229, reference compound]	–	–	1 nM	174 nM	–
N=C(N)NC(=O)OCc1cccc(-c2ccc(OCc3ccon3)nc2)n1 [Example 23]	2 nM	3820 nM	–	–	–
CSc1ncc(-c2cccc(COC(=O)NC(=N)N)n2)cn1 [Example 06]	15 nM	10200 nM	–	–	–

Continued, in another order:

IC50 ([1]; Table 1, read-out: AOC3 IC50)	IC50 ([2]; Table 1, read-out: AOC1 IC50)	IC50 [1, 3]	IC50 [2, 4]	SMILES	melting point
3 nM	612 nM	–	–	N=C(N)NC(=O)OCc1cccc(-c2cnc(OCc3nccs3)nc2)n1 [Example 31]	–
3 nM	978 nM	–	–	N=C(N)NC(=O)OCc1cccc(-c2cnc(OCc3cscn3)nc2)n1 [Example 30]	–
5 nM	2010 nM	–	–	CCCOc1ncc(-c2cccc(COC(=O)NC(=N)N)n2)cn1 [Example 07, [6-(2-propoxypyrimidin-5-yl)-2-pyridyl]methyl N-carbamimidoylcarbamate]	–
3 nM	2520 nM	–	–	N=C(N)NC(=O)OCc1cccc(-c2cnc(OC[C@H]3CC3(F)F)nc2)n1 [Example 26, [6-[2-[[(1R)-2,2-difluorocyclopropyl]methoxy]pyrimidin-5-yl]-2-pyridyl]methyl N-carbamimidoylcarbamate]	193 to 196 °C
5 nM	2390 nM	–	–	C[C@@H](F)COc1ncc(-c2cccc(COC(=O)NC(=N)N)n2)cn1 [Example 11]	–
5 nM	3620 nM	–	–	N=C(N)NC(=O)OCc1cccc(-c2cnc(OCC3(F)CC3)nc2)n1 [Example 17, [6-[2-[(1-fluorocyclopropyl)methoxy]pyrimidin-5-yl]-2-pyridyl]-methyl N-carbamimidoylcarbamate]	–
15 nM	2390 nM	–	–	CCOc1ncc(-c2cccc(COC(=O)NC(=N)N)n2)cn1 [Example 05]	–
4 nM	2690 nM	–	–	C#CCCOc1ncc(-c2cccc(COC(=O)NC(=N)N)n2)cn1 [Example 08, [6-(2-but-3-ynoxypyrimidin-5-yl)-2-pyridyl]methyl N-carbamimidoylcarbamate]	–
10 nM	8070 nM	–	–	COc1ncc(-c2cccc(COC(=O)NC(=N)N)n2)cn1 [Example 02]	–
2 nM	659 nM	–	–	N=C(N)NC(=O)OCc1cccc(-c2cnc(OCc3cncs3)nc2)n1 [Example 29]	–
4 nM	3190 nM	–	–	N#CC1(COc2ncc(-c3cccc(COC(=O)NC(=N)N)n3)cn2)CC1 [Example 21]	–
11 nM	3480 nM	–	–	COCCOc1ncc(-c2cccc(COC(=O)NC(=N)N)n2)cn1 [Example 10]	–
27 nM	7600 nM	–	–	Cc1ncc(-c2cccc(COC(=O)NC(=N)N)n2)cn1 [Example 01]	–
2 nM	503 nM	–	–	N=C(N)NC(=O)OCc1cccc(-c2cnc(OCc3cnns3)nc2)n1 [Example 34]	–
3 nM	1020 nM	–	–	N=C(N)NC(=O)OCc1cccc(-c2cnc(OCc3csnn3)nc2)n1 [Example 35]	–
